Literature values, collected in paper PMC5036784 (Biophysics, 2011).
Where two headings read alike, the source gives them in different places.

Settings: for rate constant of membrane binding kFB / rate constant of membrane dissociation kBF: 19F NMR; for time span of the binding and dissociation: timescale

Structure (SMILES) | rate constant of membrane binding kFB (ref [3]) | rate constant of membrane dissociation kBF (ref [3]) | time span of the binding and dissociation (ref [3]) | rate constant of membrane binding kFB (303K, ref [4]) | rate constant of membrane dissociation kBF (303K, ref [4]) | binding free energy ΔG (ref [4]) | time span of the binding and dissociation (ref [4])
O=c1[nH]cc(F)c(=O)[nH]1 [5FU, 5-fluoro-1H-pyrimidine-2,4-dione] | 0.2 s⁻¹ | 4.1 s⁻¹ | 10^−1–10^0 s | – | – | – | –
Oc1ccc(C(c2ccc(O)cc2)(C(F)(F)F)C(F)(F)F)cc1 [FBPA, fluorinated bisphenol A] | – | – | – | 22 to 280 s⁻¹ | 68 to 107 s⁻¹ | -4.78 kcal/mol | 10^−3–10^−2 s
